Assay results taken from article PMC6493465 (Oncotarget, 2019).

How the values were obtained:
[1] = test system: MCL-1, BCL2L10, survivin and cPARP in MV4-11 cells; test: Western blot analysis of anti-apoptotic protein expression, MV4-11; assay type: cell-based, human; conditions: MV4-11, 24-hour treatment; gilteritinib 10 nM, AraC 1000 nM, DNR 6 nM, IDR 1 nM and 2 nM, Aza 1000 nM
Method: Cell lysates were prepared in radioimmunoprecipitation assay buffer (Thermo Fisher Scientific Inc., Rockford, IL) supplemented with phosphatase (Thermo Fisher Scientific Inc.) and protease inhibitors (Merck, Billerica, MA), electrophoresed on 4%–15% gels, and subsequently transferred to polyvinylidene difluoride membranes. The membranes were blocked using Blocking One (Nacalai Tesque Inc., Kyoto, Japan) for 1 hour and then incubated overnight with primary antibodies to MCL-1, BCL210, cPARP (all from Cell Signaling Technology, Danvers, MA, USA), survivin (R&D Systems, Inc., Minneapolis, MN), and α-actin (MilliporeSigma, Burlington, MA). The membranes were washed with TBS Tween-20 (TBS-T) buffer and incubated with appropriate horseradish peroxidase-linked secondary antibodies (Cell Signaling Technology Japan K.K.) for 1 hour at room temperature. After washing the membranes in TBS-T buffer, enhanced chemiluminescence Western Blotting Detection Reagent ECL-prime (GE Healthcare, Fairfield, CT) was applied. Signals were detected with a charge-coupled device camera (ImageQuant LAS4000; GE Healthcare); signal intensity was quantified using ImageQuant™ TL software (GE Healthcare).

MV4-11 cells [2] = test: Antitumor effects in mice xenografted with MV4-11 cells; assay type: in vivo, mouse; conditions: MV4-11 xenograft; for Regression of Tumor / Inhibition of Tumor Growth: Day 21
Method: (§1) Four or five-week-old male nude mice (CanN.Cg-Foxn1nu/Crl/Crlj[nu/nu]; Charles River Laboratories Japan, Inc., Kanagawa, Japan) were maintained under specific pathogen-free conditions and received a standard diet and water supply throughout the study. All animal experimental procedures were performed in accordance with the Animal Ethics Committee of Astellas Pharma, Inc. For in vivo experiments, suspensions of MV4-11 and MOLM-13 cells in PBS at a concentration of 1 × 10^8 cells/mL were mixed with an equivalent volume of Matrigel® Basement Membrane Matrix, resulting in a final cell concentration of 5 × 10^7 cells/mL. The cells were subcutaneously injected into the flanks of mice at a concentration of 5 × 10^6 cells/0.1 mL/mouse. After tumor establishment, mice were divided into groups with similar mean tumor volume across groups.
(§2) Dosing volumes were 10 mL/kg for oral and intraperitoneal (IP) administration, and 5 or 10 mL/kg for intravenous (IV) administration. Treatment was administered once daily on designated days. The first day of treatment was designated as Day 0 and observation continued until Day 20 or 21 for mice xenografted with MV4-11 cells and Day 16 for mice xenografted with MOLM-13 cells. In mice xenografted with MV4-11 cells for experiments involving triple combination treatment, the control group received oral administration of vehicle (0.5% methylcellulose, Days 0–20), IP administration of vehicle (saline, Days 0–4), and IV administration of vehicle (saline, Days 0–2).
The AraC/DNR group received oral vehicle (0.5% methylcellulose, Days 0–20), IP AraC (50 mg/kg/day, Days 0–4), and IV DNR (2 mg/kg/day, Days 0–2). The AraC/IDR group received vehicle (Days 0–20), IP AraC (50 mg/kg/day, Days 0–4), and IV IDR (0.5 mg/kg/day, Days 0–2). […] For experiments involving Aza, the control group received oral vehicle (0.5% methylcellulose, Days 0–20) and IV vehicle (saline, Days 0–4). The Aza group received oral vehicle (0.5% methylcellulose, Days 0–20) and IV Aza (3 mg/kg/day, Days 0–4). […] For mice that received chemotherapy only, administration schedules for each agent were the same as those described in the triple combination groups.
(§3) Mice with established tumors were selected and divided into groups on Day −1 or Day 0, so that the mean tumor volumes were similar across groups. Body weights and tumor volumes assessed on Day −1 were designated as Day 0 values. Body weight and tumor diameter were measured for each experimental group; antitumor activity was expressed as the percent inhibition of tumor growth and the percent of tumor regression (further details are outlined in the Supplementary Materials). […] Complete regression was defined as no palpable or observable tumor. […]
Tumor evaluation 100 × (1 – [mean tumor volume of each group on the last day of observation] / [mean tumor volume of each
Body weight and tumor diameter were measured group on Day 0]) in xenografted nude mice xenografted with MV4-11 cells on the indicated days for each experimental group: 1. Treatments for pharmacokinetic assays […]
and 21. Body weight and tumor assessments obtained on with MV4-11 cells received one of the following Day −1 were designated as Day 0 (baseline) measurements. combination treatments: 1.
(§4) Tumor diameter was measured using a caliper and tumor 0.5% methylcellulose); 2. Oral methylcellulose (0.5%) in volume was determined by calculating the volume of an combination with IV IDR (0.5 mg/kg) and IP AraC (50 ellipsoid (ie, Length × Width2 × 0.5). The percent inhibition mg/kg); 3. […]
of tumor growth was calculated using the formula: kg) and IP AraC (50 mg/kg). For combination PK assays […]
on the last day of observation) – (tumor volume of each with MV4-11 received one of the following: […]
of each mouse on the last day of observation) – (tumor methylcellulose (0.5%) plus IV Aza (3 mg/kg); 3. Oral […]
(§5) The percent tumor regression was calculated using […]

MOLM-13 cells = test: Antitumor effects in mice xenografted with MOLM-13 cells; assay type: in vivo, mouse; conditions: MOLM-13 xenograft
Method: as §1, §2, §3
www.oncotarget.com Oncotarget, Supplementary Materials […]
Body weight and tumor diameter were measured group on Day 0]) in xenografted nude mice xenografted with MV4-11 cells on the indicated days for each experimental group: 1. […]
as §4
of tumor growth was calculated using the formula: kg) and IP AraC (50 mg/kg). […]
as §5

MV4-11 cells [3] = test: Annexin-V staining (apoptosis), MV4-11; assay type: cell-based, human; conditions: gilteritinib alone 3, 10 and 30 nM, 48 hours, vs vehicle
Method: MV4-11 cells were seeded in 12-well plates at a concentration of 2 × 10^5 cells/well and cultured overnight. […] MOLM-13 cells were seeded in 12-well plates at a concentration of 1 × 10^5 cells/well and cultured overnight.
Cells were harvested and incubated with Guava® Nexin Reagent (Merck Millipore Corporation, Billerica, MA). Annexin-V-positive cells were assessed using a Guava® PCA microcytometer (Merck Millipore Corporation); the percentage of annexin-V-positive cells (2000 cells per sample) was analyzed using CytoSoft™ software (Merck Millipore Corporation). Mean percentages of annexin-V-positive cells were derived from three independent experiments.

[4] = Aza experiment: oral gilteritinib 3 mg/kg/day Days 0-20, IV Aza 3 mg/kg/day Days 0-4
[5] = table title day 21, Aza experiment: oral gilteritinib 30 mg/kg/day Days 0-16, IV Aza 3 mg/kg/day Days 0-4

| Compound | expression of MCL-1, BCL2L10, and survivin [1] | body weight on Day 21 between control and treatment groups (MV4-11 cells [2]) | Regression of Tumor (MV4-11 cells [2]; Aza experiment) [%] | Inhibition of Tumor Growth (MV4-11 cells [2]; [4]) [%] | Inhibition of Tumor Growth (MOLM-13 cells; [5]) [%] | proportion of annexin-V-positive cells (MV4-11 cells [3]) | Regression of Tumor (MV4-11 cells [2]; AraC/DNR experiment) [%] | Inhibition of Tumor Growth (MV4-11 cells [2]; AraC/DNR experiment: oral gilteritinib 3 mg/kg/day Days 0-20, IP AraC 50 mg/kg/day Days 0-4, IV DNR 2 mg/kg/day Days 0-2) [%] | Regression of Tumor (MV4-11 cells [2]; AraC/IDR experiment) [%] | Inhibition of Tumor Growth (MV4-11 cells [2]; AraC/IDR experiment: oral gilteritinib 3 mg/kg/day Days 0-20, IP AraC 50 mg/kg/day Days 0-4, IV IDR 0.5 mg/kg/day Days 0-2) [%] | mean (±SEM) tumor weight on Day 21 (MV4-11 cells [2]; AraC/DNR experiment, control 1.234±0.150 g) [g] | mean tumor weight on Day 21 (MV4-11 cells [2]; AraC/IDR experiment, control 1.64±0.12 g) [g] | Inhibition of Tumor Growth (MOLM-13 cells; by Day 16, gilteritinib 30 mg/kg alone (both experiments)) [%] | Inhibition of Tumor Growth (MOLM-13 cells; table title day 21, AraC/IDR experiment: oral gilteritinib 30 mg/kg/day Days 0-15, IP AraC 50 mg/kg/day Days 0-4, IV IDR 0.5 mg/kg/day Days 0-2) [%] |
| --- | --- | --- | --- | --- | --- | --- | --- | --- | --- | --- | --- | --- | --- | --- |
| Nc1ncn([C@@H]2O[C@H](CO)[C@@H](O)[C@H]2O)c(=O)n1 [Aza, Azacitidine] | no change | No significant differences | 0 | 5 | 37 | – | – | – | – | – | – | – | – | – |
| CCc1nc(C(N)=O)c(Nc2ccc(N3CCC(N4CCN(C)CC4)CC3)c(OC)c2)nc1NC1CCOCC1 [Gilteritinib] | inhibited the expression | No significant differences | 0 | 71 | 90 | significantly increased | 0 | 78 | 0 | 85 | 0.441 ± 0.076 | 0.53 ± 0.09 | ≥ 90 | 93 |
